Test results from patent publication US5334587A, “Compounds, named the "Leustroducsins", their preparation and their therapeutic uses” (Sankyo Company, Limited, priority 1991, dated 1994).
In brackets after ≈: the same amount, converted by molar mass.

How the values were obtained:
Solubility / nature = assay type: physicochemical
[1] = system: GM-CSF production by KM-102 cells; test: Stimulation of GM-CSF production (KM-102 cells; GM-CSF assayed by growth of TF-1 cells); assay type: cell-based, human; conditions: for EC50: Homo sapiens, 24 hours, TF-1 cell growth, read-out: ED50 for stimulation of GM-CSF production; for EC50 / induction of GM-CSF production (in words): KM-102 cells
Text: (§1) The ability of the leustroducsins to stimulate the production of hematopoietic factors in accordance with the present invention can, in principle, be assayed by the method by Kohama et al. [Experimental Hematology 16, 603-608 (1988)]. In this method, a production system for various hematopoietic factors and an assay system for various hematopoietic factors are combined. KM-102 cells, for example, which originated from human bone marrow stromal cells, my be employed to produce various hematopoietic factors. However, any cells capable of the production of various hematopoietic factors may be used instead, for example primary cultured bone marrow stromal cells, vascular endothelial cells, lymphocytes, or macrophages which exist in the bone marrow. A test sample of the compound whose activity is to be assessed is diluted to a suitable concentration and added the culture system containing the cells which produce various hematopoietic factors ("HF-producing cells"). After a suitable period, usually 24 hours, a part of the supernatant of the culture medium is taken, and added to a culture system of cells which are dependent on various hematopoietic factors, for example, TF-1 cells and NFS-60 cells, ("HF-dependent cells") at a suitable concentration. After a certain time, the amount of hematopoietic factors can be measured by measuring the growth of the HF-dependent cells, and thus the ability of the compound to stimulate the production of various hematopoietic factors can be assayed. The growth of the HF-dependent cells may be determined by any conventional method, such as the incorporation of tritium-thymidine by the cells or using an MTT [3-(4,5-dimethylthiazol-2-yl)-2,5-diphenyltetrazolium bromide] assay method (Chemicon International Inc., USA). The assay of various hematopoietic factors may be carried out by any conventional method, such as the colony-forming method or the ELISA method.
Determination of the stimulation of GM-CSF production by the compounds of the present invention was carried out, in principle, using a combination of the method of Kohama et al. [Experimental Hematology 16, 603-608 (1988)] and that of Kitamura et al. [Journal of Cellular Physiology 140, 323-334 (1989)]. In more detail, KM-102 cells originating from human bone marrow stromal cells, which served as to produce GM-CSF, were mixed with a test sample solution diluted to a suitable concentration (the "GM-CSF producing system"). After incubation for 24 hours, a part of the culture supernatant was taken and was added to a culture system of GM-CSF-dependent human TF-1 cells. After between 48 and 72 hours, the amount of GM-CSF was measured by the growth of TF-1 cells (the "GM-CSF assay system") to obtain a measure of the stimulation of GM-CSF production. The growth of TF-1 cells was determined by tritium thymidine pulse-labelling for 4 hours. Similar results were obtained also by means of an MTT kit (Chemicon International Inc. USA) to assay the growth of TF-1 cells and by means of an ELISA kit (Genzyme Inc. USA) to assay the GM-CSF. Whether the GM-CSF production inducing system functioned normally or not was assayed by means of recombinant interleukin 1β (IL-1β: Genzyme Inc. USA).

[2] = system: G-CSF production by KM-102 cells; test: Stimulation of G-CSF production (KM-102 cells; G-CSF assayed by growth of NFS-60 cells); assay type: cell-based, human; conditions: for EC50: Homo sapiens, 24 hours, NFS-60 cell growth, read-out: ED50 for stimulation of G-CSF production; for EC50 / induction of G-CSF production (in words): KM-102 cells
Text: as §1
Stimulation of G-CSF production was assayed by a system in which the GM-CSF assay system employed inTest Example 1 was replaced by a G-CSF assay system [as described by Shirafuji et al.: Experimental Hematology 17, 116-119 (1989)]. In more detail, KM-102 cells originating from human bone marrow stromal cells, which served to produce G-CSF, were added to a leustroducsin solution diluted to a suitable concentration (the "G-CSF producing system"). After incubation for 24 hours, a part of the culture supernatant was taken, and added to a culture system of G-CSF-dependent NFS-60 cells. After between 24 and 48 hours, the amount of G-CSF was assayed from the growth of NFS-60 cells (the "G-CSF assay system") to obtain a measure of the stimulation of G-CSF production. The growth of NFS-60 cells was determined by tritium-thymidine pulse-labelling for 4 hours. Similar results were also obtained by means of an MTT kit to assay the growth of NFS-60 cells and by means of an ELISA kit to assay the G-CSF [Motojima et al.: Journal of Immunological Methods 118, 187-192 (1989)]. Whether the G-CSF production inducing system functioned normally or not was assayed by means of recombinant interleukin 1 β (IL-1β: Genzyme Inc. USA).

Acute toxicity = assay type: in vivo, ddY mice (male)
Experimental: According to the conventional procedure, the acute toxicity was tested in five ddY mice (male).

[3] = similarly tested, dose not separately printed

CCC1C=CC(=O)OC1/C=C/C(O)(CCN)C(CC(O)/C=C\C=C/C1CCCC(OC(=O)CCCC(C)C)C1)OP(=O)(O)O (centres unmarked) [Leustroducsin A]
Nature (Solubility / nature): Acidic and fat soluble | Solubility in hexane (Solubility / nature): insoluble in hexane | Solubility in organic solvents (Solubility / nature): Soluble in alcohols, such as methanol, ethanol or butanol; and soluble in acetone, chloroform, ethyl acetate and dimethyl sulfoxide | Solubility in water (Solubility / nature): limited solubility in water | EC50 [1]: 0.18 µg/mL | induction of GM-CSF production (in words) [1]: induced in a dose-dependent manner | EC50 [2]: 0.2 µg/mL (≈ 0.312 µM) | induction of G-CSF production (in words) [2]: induced in a dose-dependent fashion | acute toxicity (Acute toxicity; intraperitoneal, 0.2 mg/kg, 5 days, five mice): no toxicity was observed

CCC(C)CCCCC(=O)OC1CCCC(/C=C\C=C/C(O)CC(OP(=O)(O)O)C(O)(/C=C/C2OC(=O)C=CC2CC)CCN)C1 (centres unmarked) [Leustroducsin B]
Nature (Solubility / nature): Acidic and fat soluble | Solubility in hexane (Solubility / nature): insoluble in hexane | Solubility in organic solvents (Solubility / nature): Soluble in alcohols, such as methanol, ethanol or butanol; and soluble in acetone, chloroform, ethyl acetate and dimethyl sulfoxide | Solubility in water (Solubility / nature): limited solubility in water | EC50 [1]: 0.05 µg/mL | induction of GM-CSF production (in words) [1]: induced in a dose-dependent manner | EC50 [2]: 0.05 µg/mL (≈ 0.0746 µM) | induction of G-CSF production (in words) [2]: induced in a dose-dependent fashion | acute toxicity (Acute toxicity; [3]): no toxicity was observed

IL-1β: recombinant interleukin 1β (IL-1β: Genzyme Inc. USA)
induction of GM-CSF production by IL-1β (in words) ([1]; 1 to 100 units/ml): induced GM-CSF production in a dose-dependent manner | induction by IL-1β, printed as GM-CSF production in the G-CSF test (in words) ([2]; 1 to 100 units/ml): induced GM-CSF production in a dose-dependent fashion

CCC1C=CC(=O)OC1/C=C/C(O)(CCN)C(CC(O)/C=C\C=C/C1CCCC(OC(=O)CCCCCC(C)C)C1)OP(=O)(O)O (centres unmarked) [Leustroducsin C]
Nature (Solubility / nature): Acidic and fat soluble | Solubility in hexane (Solubility / nature): insoluble in hexane | Solubility in organic solvents (Solubility / nature): Soluble in alcohols, such as methanol, ethanol or butanol; and soluble in acetone, chloroform, ethyl acetate and dimethyl sulfoxide | Solubility in water (Solubility / nature): limited solubility in water | EC50 [1]: 0.05 µg/mL | induction of GM-CSF production (in words) [1]: induced in a dose-dependent manner | EC50 [2]: 0.05 µg/mL (≈ 0.0746 µM) | induction of G-CSF production (in words) [2]: induced in a dose-dependent fashion | acute toxicity (Acute toxicity; [3]): no toxicity was observed
